Reference: US11401277B2, “Anti-bacterial heterocyclic compounds and their synthesis” (Bugworks Research, Inc., priority 2017, dated 2022)
Several values for one entry are separate records, joined by “and”; a condition that tells them apart may be missing. Identical values can stand only once. Like-named read-outs stand apart in the source and are kept apart here.

Legend:
[1] = In vivo pharmacokinetic (PK) studies in rats; design: species or system Sprague-Dawley (SD) rats; conditions: male, Sprague-Dawley, rat, plasma; for clearance: read-out: CLp (converted)
E. coli [ATCC25922] [2] = assay: Neutropenic Thigh Infection Model in Rat, E. coli; format: in vivo; conditions: for MEAN ± SD (Log10 CFU/g thigh) / Mean Log 10 CFU/thigh reduction (wrt 2 h PI control: 5.04 Log10CFU/g thigh) / Log10 CFU/g thigh: i.v., 1 h infusion; for Log10 CFU/g thigh: individual animals, 10 hr post infection
E. coli [ATCC25922] [3] = assay: Urinary Tract Infection Rat Model (kidneys, bladder); conditions: for MEAN ± SD (Log10 CFU/g kidneys) / MEAN ± SD (Log10 CFU/ml Bladder) / Mean Log10CFU/g kidney reduction (wrt 4 h PI control: 4.53 Log10CFU/g kidneys) / Mean Log10 CFU/ml Bladder reduction (wrt 4 h PI control: 5.72 CFU/ml Bladder) / Log10 CFU/g (Left Kidney) / Log10 CFU/g (Right Kidney) / Log10 CFU/ml Bladder: i.v., 1 h infusion; for Log10 CFU/g (Left Kidney) / Log10 CFU/g (Right Kidney) / Log10 CFU/ml Bladder: individual animals, 24 h post infection

## Cn1c(=O)ccc2ccc(F)c(OCCNC[C@H]3CN(c4cnc5c(n4)NC(=O)CO5)C(=O)O3)c21 [Compound 2, (S)-6-(5-(((2-((7-fluoro-1-methyl-2-oxo-1,2-dihydroquinolin-8-yl)oxy)ethyl)amino)methyl)-2-oxooxazolidin-3-yl)-2H-pyrazino[2,3-b][1,4]oxazin-3(4H)-one]
[1]; 30 mg/kg, PO
  half-life: 1.7 ± 0.5 h
[1]; 100 mg/kg, IV
  AUC(0-inf): 118 ± 13.6 µg·h/mL
  AUC(0-t): 118 ± 13.6 µg·h/mL
  Tmax: 1 h
  half-life: 4.53 ± 0.12 h
  clearance: 14.2 mL/min/kg
[1]; 100 mg/kg, PO
  AUC(0-inf): 14.4 ± 4.6 µg·h/mL
  Cmax: 9790 ± 1100 ng/mL
  Tmax: 0.33 ± 0.14 h
  half-life: 5.32 ± 2.1 h
[1]; 150 mg/kg, IV
  AUC(0-inf): 172 ± 10.7 µg·h/mL
  AUC(0-t): 172 ± 10.8 µg·h/mL
  Tmax: 2 h
  half-life: 4.24 ± 0.67 h
  clearance: 14.5 mL/min/kg
[1]; 300 mg/kg, PO
  AUC(0-inf): 27.2 ± 17.5 µg·h/mL
  Cmax: 11100 ± 3100 ng/mL
  Tmax: 1 h
  half-life: 2.2 h
E. coli [ATCC25922] [2]; 3 mg/kg
  MEAN ± SD (Log10 CFU/g thigh): 5.08 ± 0.39 Log10 CFU/g thigh
  Mean Log 10 CFU/thigh reduction (wrt 2 h PI control: 5.04 Log10CFU/g thigh): 0.77 Log 10 CFU/thigh
  Log10 CFU/g thigh: 5.37 Log10 CFU/g thigh and 4.64 Log10 CFU/g thigh and 5.23 Log10 CFU/g thigh
E. coli [ATCC25922] [2]; 10 mg/kg
  MEAN ± SD (Log10 CFU/g thigh): 4.41 ± 0.18 Log10 CFU/g thigh
  Mean Log 10 CFU/thigh reduction (wrt 2 h PI control: 5.04 Log10CFU/g thigh): 1.44 Log 10 CFU/thigh
  Log10 CFU/g thigh: 4.44 Log10 CFU/g thigh and 4.57 Log10 CFU/g thigh and 4.21 Log10 CFU/g thigh
E. coli [ATCC25922] [2]; 30 mg/kg
  MEAN ± SD (Log10 CFU/g thigh): 2.83 ± 0.35 Log10 CFU/g thigh
  Mean Log 10 CFU/thigh reduction (wrt 2 h PI control: 5.04 Log10CFU/g thigh): 3.02 Log 10 CFU/thigh
  Log10 CFU/g thigh: 2.66 Log10 CFU/g thigh and 2.6 Log10 CFU/g thigh and 3.24 Log10 CFU/g thigh
E. coli [ATCC25922] [2]; 3, 10 and 30 mg/kg, rat thigh E. coli
  efficacy with respect to 2 h Post Infection (PI) control (in words): significant dose dependent bactericidal efficacy
E. coli [ATCC25922] [3]; 3 mg/kg
  effect when compared to the 4 h PI control (in words): bacteriostatic
  MEAN ± SD (Log10 CFU/g kidneys): 5.13 ± 0.28 Log10 CFU/g kidneys
  MEAN ± SD (Log10 CFU/ml Bladder): 5.89 ± 0.4 Log10 CFU/ml Bladder
  Mean Log10CFU/g kidney reduction (wrt 4 h PI control: 4.53 Log10CFU/g kidneys): −0.60 Log10CFU/g kidney
  Mean Log10 CFU/ml Bladder reduction (wrt 4 h PI control: 5.72 CFU/ml Bladder): −0.17 Log10 CFU/ml Bladder
  Log10 CFU/g (Left Kidney): 5.39 Log10 CFU/g and 5.17 Log10 CFU/g and 5.24 Log10 CFU/g
  Log10 CFU/g (Right Kidney): 4.68 Log10 CFU/g and 4.90 Log10 CFU/g and 5.39 Log10 CFU/g
  Log10 CFU/ml Bladder: 5.43 Log10 CFU/ml Bladder and 6.16 Log10 CFU/ml Bladder and 6.08 Log10 CFU/ml Bladder
E. coli [ATCC25922] [3]; 10 mg/kg
  MEAN ± SD (Log10 CFU/g kidneys): 3.95 ± 0.33 Log10 CFU/g kidneys
  MEAN ± SD (Log10 CFU/ml Bladder): 4.8 ± 0.2 Log10 CFU/ml Bladder
  Mean Log10CFU/g kidney reduction (wrt 4 h PI control: 4.53 Log10CFU/g kidneys): 0.58 Log10CFU/g kidney
  Mean Log10 CFU/ml Bladder reduction (wrt 4 h PI control: 5.72 CFU/ml Bladder): 0.92 Log10 CFU/ml Bladder
  Log10 CFU/g (Left Kidney): 4.12 Log10 CFU/g and 3.78 Log10 CFU/g and 4.46 Log10 CFU/g
  Log10 CFU/g (Right Kidney): 4.11 Log10 CFU/g and 3.65 Log10 CFU/g and 3.61 Log10 CFU/g
  Log10 CFU/ml Bladder: 5.02 Log10 CFU/ml Bladder and 4.61 Log10 CFU/ml Bladder and 4.76 Log10 CFU/ml Bladder
E. coli [ATCC25922] [3]; 30 mg/kg
  MEAN ± SD (Log10 CFU/g kidneys): 2.91 ± 0.31 Log10 CFU/g kidneys
  MEAN ± SD (Log10 CFU/ml Bladder): 3.89 ± 0.3 Log10 CFU/ml Bladder
  Mean Log10CFU/g kidney reduction (wrt 4 h PI control: 4.53 Log10CFU/g kidneys): 1.62 Log10CFU/g kidney
  Mean Log10 CFU/ml Bladder reduction (wrt 4 h PI control: 5.72 CFU/ml Bladder): 1.83 Log10 CFU/ml Bladder
  Log10 CFU/g (Left Kidney): 3.22 Log10 CFU/g and 3.36 Log10 CFU/g and 2.80 Log10 CFU/g
  Log10 CFU/g (Right Kidney): 2.77 Log10 CFU/g and 2.75 Log10 CFU/g and 2.55 Log10 CFU/g
  Log10 CFU/ml Bladder: 4.19 Log10 CFU/ml Bladder and 3.90 Log10 CFU/ml Bladder and 3.58 Log10 CFU/ml Bladder
E. coli [ATCC25922] [3]; 10 and 30 mg/kg
  effect with respect to 4 h PI control (in words): significant dose dependent bactericidal effect
